Measured values published in patent US20200237759A1, “DOSAGE REGIME AND METHOD FOR TREATING PULMONARY ARTERIAL HYPERTENSION” (Altavant Sciences GmbH, priority 2019, published 2020).
Entries after “also recorded” stand apart in the source; their conditions may differ.

What was measured:
[1] = Part 1 SAD urine pharmacokinetics (urinary excretion, renal clearance); assay type: in vivo, human
Protocol: Renal clearance of KAR5417 was calculated from the area under the plasma time concentration curve (AUC0-96) for KAR5417 and the amount of KAR5417 recovered in urine (Table 21).

[2] = tested on: urine 5-HIAA/24 hours; experiment: Part 2 MAD biomarker: urine 5-HIAA/24 hours change from Day 1; assay type: in vivo, human; details: Days 7 and 14, all dose groups
Text: Biomarkers were to be evaluated in Part 2 by measuring concentrations of serotonin (5-hydroxytryptamine [5-HT]) in serum and 5-hydroxyindoleacetic acid (5-HIAA) in plasma and urine. As well, the relationship of biomarkers to PK parameters was to be evaluated.
The biomarker analysis was to be based on the Biomarker Population (all subjects with evaluable biomarker measurements at baseline [Day 1 predose] and at least one after dosing [Day 7 or Day 14]).
Biomarker data were to be collected only in Part 2. The following biomarkers were to be analyzed: • Serum 5-HT • Plasma 5-HIAA • Urine 5-HIAA/24 hours (as measured, adjusted, estimated, and per gram creatinine)
Linear regression was to be performed using biomarker changes, absolute and relative (%), from Day 1, at predose on Day 7 or Day 14 versus AUC0-24, Cmax, and Cmin in corresponding study days. The slopes and corresponding 95% confidence intervals (CIs) were to be tabulated. […]
The biomarker portion of the study was conducted in Part 2 MAD using the Biomarker Population. The biomarkers evaluated were serum 5-HT and plasma 5-HIAA, as well as urine 5-HIAA/24 hours (as measured, adjusted, estimated, and per gram creatinine). Urinary 5-HIAA was determined by a validated (21 C.F.R. 58, GLP-compliant) method using liquid chromatographic separation and tandem mass spectrometry detection. […]
Biomarker data were analyzed for each KAR5585 dose separately, for all KAR5585 doses pooled, and for all placebo subjects pooled.
Urine 5 HIAA/24 hour was analyzed in 4 different manners: as measured in the 24-hour collection and (in order to correct for any collection errors) adjusted for creatinine excretion, estimated by the expected creatinine excretion for the subject (as defined in and expressed per gram creatinine. Results were similar for each of the 4 manners and are presented in this report for measured urine. Tables and figures for adjusted, estimated, and per-gram creatinine results are presented in Section 14. […]

[3] = Part 1 SAD plasma pharmacokinetics of KAR5585 and KAR5417 after a single oral dose of KAR5585 (fasting; fed food effect); details: for AUC0-inf Geometric Mean / AUC0-tau Geometric Mean / Cmax Geometric Mean: 400 mg KAR5585 single oral dose
Protocol: Food effect was to be evaluated in Part 1, Period 2. Part 2 was permitted to begin before Part 1 was completed and, in each part, the data from each dose Cohort were to be reviewed for safety before the next dose Cohort was enrolled.
Part 1 had 6 Cohorts of 12 subjects each (for a total of 72 subjects) and Part 2 had 4 Cohorts of 12 subjects each (for a total of 48 subjects). In Part 1, the 12 subjects in Cohort 3 (400 mg) were studied twice, once under fasting conditions (Period 1) and once under fed conditions (Period 2) for food-effect assessment.
Pharmacokinetic data were to be summarized descriptively.

[4] = 100 mg to 700 mg single dose, 7-fold increase in dose
[5] = 700 mg to 2000 mg single dose, 2.86-fold increase in dose
[6] = KAR5585 100 mg single oral dose, fasted, Cohort 1
[7] = KAR5585 200 mg single oral dose, fasted, Cohort 2
[8] = KAR5585 400 mg single oral dose, fasted, Cohort 3A
[9] = KAR5585 400 mg single oral dose, fed, Cohort 3B
[10] = KAR5585 700 mg single oral dose, fasted, Cohort 4
[11] = KAR5585 1200 mg single oral dose, fasted, Cohort 5
[12] = KAR5585 2000 mg single oral dose, fasted, Cohort 6

SMILES: CCOC(=O)[C@@H]1CC2(CCN(c3cc(O[C@H](c4ccc(Cl)cc4-c4ccccc4)C(F)(F)F)nc(N)n3)CC2)CN1 [KAR5585, (S)-ethyl 8-(2-amino-6-((R)-1-(5-chloro-[1,1′-biphenyl]-2-yl)-2,2,2-trifluoroethoxy)pyrimidin-4-yl)-2,8-diazaspiro[4.5]decane-3-carboxylate]
- amount excreted (Ae) in urine, of the administered dose ([1]; single oral KAR5585, all dose levels): less than 0.004%
- quantifiability in urine samples ([1]; single oral KAR5585, almost all subjects): could not be quantified in urine samples; also recorded: not quantifiable in urine in almost all subjects
- absolute and percent changes from Day 1 in creatinine-normalized urine 5-HIAA versus placebo [2]: statistically significant in favor of KAR5585
- increase in mean AUC0-24 [3, 4]: 8.7 fold
- increase in mean AUC0-inf [3, 4]: 8.8 fold
- increase in AUC0-24 [3, 5]: 1.86 fold
- increase in AUC0-inf [3, 5]: 1.78 fold
- AUC0-inf Geometric Mean ([3]; Cohort 3A (Fasting)): 288 ng·h/mL
- AUC0-tau Geometric Mean ([3]; Cohort 3A (Fasting)): 176 ng·h/mL
- Cmax Geometric Mean ([3]; Cohort 3A (Fasting)): 42 ng/mL
- AUC0-inf Geometric Mean ([3]; Cohort 3B (Fed)): 903 ng·h/mL
- AUC0-tau Geometric Mean ([3]; Cohort 3B (Fed)): 854 ng·h/mL
- Cmax Geometric Mean ([3]; Cohort 3B (Fed)): 165 ng/mL
- AUC0-12 (Mean) [3, 6]: 48.1 ng·h/mL
- AUC0-24 (Geo. Mean) [3, 6]: 47.5 ng·h/mL
- AUC0-∞ (Geo. Mean) [3, 6]: 47.5 ng·h/mL
- Cmax/D Geo. Mean [3, 6]: 0.132 (ng/mL)/mg
- Cmax/D Mean [3, 6]: 0.139 (ng/mL)/mg
- V2/F Geo. Mean [3, 6]: 5190 L
- V2/F Mean [3, 6]: 5680 L
- t1 Geo. Mean [3, 6]: 1.71 h
- t1 Mean [3, 6]: 1.89 h
- AUC0-12 (Geo. Mean) [3, 7]: 83.3 ng·h/mL
- AUC0-24 (Geo. Mean) [3, 7]: 93.4 ng·h/mL
- AUC0-∞ (Geo. Mean) [3, 7]: 95.3 ng·h/mL
- Cmax/D Geo. Mean [3, 7]: 0.0875 (ng/mL)/mg
- Cmax/D Mean [3, 7]: 0.0961 (ng/mL)/mg
- V2/F Geo. Mean [3, 7]: 9610 L
- V2/F Mean [3, 7]: 10300 L
- t1 Geo. Mean [3, 7]: 3.17 h
- t1 Mean [3, 7]: 3.63 h
- AUC0-24 (Geo. Mean) [3, 8]: 283 ng·h/mL
- AUC0-∞ (Geo. Mean) [3, 8]: 288 ng·h/mL
- Cmax/D Geo. Mean [3, 8]: 0.105 (ng/mL)/mg
- Cmax/D Mean [3, 8]: 0.132 (ng/mL)/mg
- V2/F Geo. Mean [3, 8]: 8100 L
- V2/F Mean [3, 8]: 8330 L
- t1 Geo. Mean [3, 8]: 4.04 h
- t1 Mean [3, 8]: 4.08 h
- AUC0-24 (Geo. Mean) [3, 9]: 876 ng·h/mL
- AUC0-tau Geo. Mean [3, 9]: 854 ng·h/mL
- AUC0-∞ (Geo. Mean) [3, 9]: 903 ng·h/mL
- Cmax (Geo. Mean) [3, 9]: 165 ng/mL
- Cmax/D Geo. Mean [3, 9]: 0.413 (ng/mL)/mg
- Cmax/D Mean [3, 9]: 0.422 (ng/mL)/mg
- V2/F Geo. Mean [3, 9]: 2730 L
- V2/F Mean [3, 9]: 2780 L
- t1 Geo. Mean [3, 9]: 4.26 h
- t1 Mean [3, 9]: 4.45 h
- AUC0-12 (Mean) [3, 10]: 392 ng·h/mL
- Cmax (Geo. Mean) [3, 10]: 95.2 ng/mL
- Cmax/D Geo. Mean [3, 10]: 0.136 (ng/mL)/mg
- Cmax/D Mean [3, 10]: 0.142 (ng/mL)/mg
- V2/F Geo. Mean [3, 10]: 8390 L
- V2/F Mean [3, 10]: 9120 L
- t1 Geo. Mean [3, 10]: 3.42 h
- t1 Mean [3, 10]: 3.46 h
- tmax (Median) [3, 10]: 1.75 h
- AUC0-12 (Geo. Mean) [3, 11]: 356 ng·h/mL
- AUC0-12 (Mean) [3, 11]: 402 ng·h/mL
- AUC0-24 (Geo. Mean) [3, 11]: 400 ng·h/mL
- AUC0-tau Mean [3, 11]: 364 ng·h/mL
- AUC0-∞ (Geo. Mean) [3, 11]: 406 ng·h/mL
- Cmax/D Geo. Mean [3, 11]: 0.0568 (ng/mL)/mg
- Cmax/D Mean [3, 11]: 0.0692 (ng/mL)/mg
- V2/F Geo. Mean [3, 11]: 14500 L
- V2/F Mean [3, 11]: 16900 L
- t1 Geo. Mean [3, 11]: 3.40 h
- t1 Mean [3, 11]: 3.58 h
- Cmax (Geo. Mean) [3, 12]: 95.1 ng/mL
- Cmax (Mean) [3, 12]: 104 ng/mL
- Cmax/D Geo. Mean [3, 12]: 0.0475 (ng/mL)/mg
- Cmax/D Mean [3, 12]: 0.0522 (ng/mL)/mg
- V2/F Geo. Mean [3, 12]: 20600 L
- V2/F Mean [3, 12]: 25100 L
- t1 Geo. Mean [3, 12]: 4.76 h
- t1 Mean [3, 12]: 4.84 h
- tmax (Median) [3, 12]: 2.00 h
- time up to which concentrations remained above the LLOQ ([3]; single 100 mg KAR5585, fasting): up to 4 hours
- time up to which concentrations remained above the LLOQ ([3]; single 200 mg KAR5585, fasting): up to 12 hours
- time up to which concentrations remained above the LLOQ ([3]; single 400 mg KAR5585, fasting): up to 12 hours
- time up to which concentrations remained above the LLOQ ([3]; single 700 mg KAR5585, fasting): up to 12 hours
- time up to which concentrations remained above the LLOQ ([3]; single 1200 mg KAR5585, fasting): up to 12 hours
